Experiments:
rat FABP1 [1] = molecular target: T1, rat FABP1 (Rattus norvegicus, UniProt P02692); settings: read-out: Ki, displacement of FABP1-bound cis-parinaroyl-CoA; rat FABP1, mean ± SE n=3, Fig 1A; cited from earlier work
T1 sequence (P02692 1-127): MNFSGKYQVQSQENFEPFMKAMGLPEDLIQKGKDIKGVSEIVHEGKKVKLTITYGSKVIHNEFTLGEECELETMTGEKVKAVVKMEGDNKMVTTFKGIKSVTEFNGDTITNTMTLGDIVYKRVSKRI

human WT FABP1 [2] = molecular target: T2, human WT FABP1 (Homo sapiens, UniProt P07148); test: DAUDA fluorescent ligand displacement assay, human FABP1; type: binding; settings: AEA 0–6μM, Fig 1B
T2 sequence (P07148 1-127): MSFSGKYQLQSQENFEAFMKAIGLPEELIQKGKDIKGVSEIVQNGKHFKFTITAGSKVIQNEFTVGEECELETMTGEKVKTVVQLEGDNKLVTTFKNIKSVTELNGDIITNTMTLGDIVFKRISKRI

human WT FABP1 [3] = molecular target: T2, human WT FABP1; test: cis-parinaroyl-CoA fluorescent ligand displacement assay, human FABP1; type: binding; settings: AEA 0–6μM, Fig 1B
human FABP1 [4] = settings: read-out: Ki (printed Kids), ANS displacement; cited from earlier work
L-cells = test: Cellular uptake of NBD-labeled probes by confocal imaging; type: cell-based, murine; settings: Fig 3B
rat FABP1 [5] = molecular target: T1, rat FABP1; settings: cited from earlier work; for number of ligand molecules bound per FABP1 (binding sites): rat FABP1, fractional saturation curves, Fig 2B; for Kd: read-out: Kd, direct binding of NBD-labeled ligand, rat FABP1, mean ± SE n=3, Fig 2B
human FABP1 T94A variant = settings: T94A variant vs WT human FABP1; cited from earlier work
human FABP1 [6] = settings: cited from earlier work

CCCCC/C=C\C/C=C\C/C=C\C/C=C\CCCC(=O)OC(CO)CO [2-AG, 2-arachidonoylglycerol]
Ki (rat FABP1 [1]): 205 ± 3 nM

CCCCC/C=C\C/C=C\C/C=C\C/C=C\CCCC(=O)NCCO [AEA, N-arachidonoylethanolamide]
displacement of human FABP1 bound DAUDA (human WT FABP1 [2]): did displace
displacement of human FABP1 bound cis-parinaroyl CoA (human WT FABP1 [3]): did not displace
Ki (rat FABP1 [1]): 400 ± 20 nM

CCCCC/C=C\C/C=C\C/C=C\C/C=C\CCCC(=O)O [ARA, arachidonic acid]
Ki (human FABP1 [4]): 113 ± 6 nM

O=C(CCC/C=C\C/C=C\C/C=C\C/C=C\CCCCCNc1ccc([N+](=O)[O-])c2nonc12)OC(CO)CO [NBD-2-AG]
maximal uptake, fold higher than that of NBD-ARA (L-cells): at least 1.6 fold
number of ligand molecules bound per FABP1 (binding sites) (rat FABP1 [5]): single
Kd (rat FABP1 [5]): 250 ± 50 nM

O=C(CCC/C=C\C/C=C\C/C=C\C/C=C\CCCCCNc1ccc([N+](=O)[O-])c2nonc12)NCCO [NBD-AEA, 20-[(7-nitro-2-1,3-benzoxadiazol-4-yl)amino] arachidonoylethanolamide]
maximal uptake, fold higher than that of NBD-ARA (L-cells): at least 1.6 fold
number of ligand molecules bound per FABP1 (binding sites) (rat FABP1 [5]): single
Kd (rat FABP1 [5]): 800 ± 200 nM

O=C(O)CCC/C=C\C/C=C\C/C=C\C/C=C\CCCCCNc1ccc([N+](=O)[O-])c2nonc12 [NBD-ARA, 20-[(7-nitro-2-1,3-benzoxadiazol-4-yl)amino] arachidonic acid]
number of ligand molecules bound per FABP1 (binding sites) (rat FABP1 [5]): two
Kd (rat FABP1 [5]): 660 ± 60 nM

CC(C)CCC[C@@H](C)[C@H]1CC[C@H]2[C@@H]3CC=C4C[C@@H](O)CC[C@]4(C)[C@H]3CC[C@]12C [cholesterol]
fold increase in affinity of human FABP1 by T94A substitution (human FABP1 T94A variant): 3 fold
fold weaker affinity of human FABP1 compared to rat FABP1 (human FABP1 [6]; human vs rat FABP1): 3.5 fold

CCCCCCCC/C=C\CCCCCCCC(=O)SCCNC(=O)CCNC(=O)[C@H](O)C(C)(C)COP(=O)(O)OP(=O)(O)OC[C@H]1O[C@@H](n2cnc3c(N)ncnc32)[C@H](O)[C@@H]1OP(=O)(O)O [oleoyl-CoA]
fold higher affinity of human FABP1 compared to rat FABP1 (human FABP1 [6]; human vs rat FABP1 within the same study): 2.2 fold
